The record followed here is ChEMBL document CHEMBL3393021, “Evaluation and synthesis of polar aryl- and heteroaryl spiroazetidine-piperidine acetamides as ghrelin inverse agonists” (ACS Med Chem Lett, 2015).

Broadly, the logD is the decadic logarithm of the distribution of all forms, ionised or not, between an organic phase and buffer at a given pH. The bioavailability is the share of a dose that reaches the circulation, judged against a reference dose that is usually intravenous.

Values after ≈ are worked out from the molar mass of the structure shown.

One data set in a line: physchem. As to conditions: buffer, pH 7.4.
The nature of data set [1]: Volume of distribution at steady state in Wistar Han rat at 1 mg/kg, iv or 5 mg/kg, po. Format: ADME, organism-based. As to conditions: in vivo, read-out: Vdss.
Data set [2] in a line: Oral bioavailability in Wistar Han rat at 5 mg/kg. Format: ADME, organism-based. As to conditions: in vivo.
Data set [3] is described as follows: Toxicity in human THLE cells. Format: cell-based.
Data set [4] in a line: Kinetic solubility in 2% sodium phosphate buffer at pH 6.5 after 24 hrs. Format: physicochemical. As to conditions: read-out: Kinetic_solubility.
Data set [5] can be described thus: Volume of distribution at steady state in […] at 1 mg/kg, iv or 5 mg/kg, po. Format: ADME, organism-based, Macaca fascicularis. As to conditions: in vivo, read-out: Vdss.
Data set [6] in a line: Volume of distribution at steady state in […] at 1 mg/kg, iv or 4 mg/kg, po. Particulars: in vivo, read-out: Vdss. Format: ADME, organism-based, Canis lupus familiaris.
Data set [7] is described as follows: Oral bioavailability in […] at 5 mg/kg. The format is ADME, organism-based, Macaca fascicularis. Particulars: in vivo.
Data set [8] can be described thus: Oral bioavailability in […] at 4 mg/kg. Format: ADME, organism-based, Canis lupus familiaris. As to conditions: in vivo.

With `COc1ccc(CC(=O)N2CCC3(CC2)CN([C@@H]2CCc4cc(-c5cc(C)ncn5)ccc42)C3)nc1`, the pH-dependent lipophilicity (logD) in the data set “physchem” is 1.6.

The molecule `Cc1cc(-c2ccc3c(c2)CC[C@H]3N2CC3(CCN(C(=O)Cc4nn(C)c5ncccc45)CC3)C2)ncn1` yielded a logD in “physchem” of 2.1.

As for `COc1ccc(CC(=O)N2CCC3(CC2)CN([C@@H]2CCc4cc(-c5cc(C)ncn5)ccc42)C3)c(C#N)c1`, in “physchem”, the logD came to 2.4.

As to `COc1ccc(OCC(=O)N2CCC3(CC2)CN([C@@H]2CCc4cc(-c5cc(C)ncn5)ccc42)C3)c(C#N)c1`, the pH-dependent lipophilicity (logD) in “physchem” came out at 2.3.

On to `COc1ccc(CC(=O)N2CCC3(CC2)CN([C@@H]2CCc4cc(-c5cc(C)ncn5)ccc42)C3)c(C(N)=O)c1`, for which the Vd is 8.1 L/kg in data set [1], 2.2 L/kg in [5] and 7.3 L/kg in data set [6]. For the same molecule, the values for the bioavailability in [2], in data set [7] and in data set [8] were 15%, 32% and 67%, respectively. In addition, in data set [3], the INH was greater than 248 µM. For the same molecule, the solubility kinetic at 24 h in data set [4] stood at 185 µg/mL (≈ 352 µM). In addition, the log distribution coefficient (logD) in “physchem” was determined as 1.4.

`COc1ccc(CCC(=O)N2CCC3(CC2)CN([C@@H]2CCc4cc(-c5cc(C)ncn5)ccc42)C3)c(C(N)=O)c1` came in with a logD in “physchem” of 1.9.

Take `COc1ccc(CC(=O)N2CCC3(CC2)CN([C@@H]2CCc4cc(-c5cc(C)ncn5)ccc42)C3)c(NC(C)=O)c1`: the logD in the data set “physchem” stood at 1.6.
